pIC50: −log10 of the molar value. Each block holds one compound with its values, some of them ahead of it.
Test system: 624824-186-R-J2-PDC multicell spheroids, viability
Assay: Anticancer human tumor 624824-186-R-J2-PDC patient-derived colon adenocarcinoma cell line growth inhibition [PI3K]
Conditions: for pIC50: curve of first compound; for viability, T/C: stronger effect = lower value
Excerpt: Combinatorial screen of targeted agents with the PI3K inhibitors inavolisib, alpelisib, duvelisib, and copanlisib in multi-cell type tumor spheroids
A high-throughput screen of multi-cell type tumor spheroids was designed to identify active combinations of targeted small molecules and PI3K pathway inhibitors. Complex spheroids include a stromal component modeled by human endothelial cells (HUVEC) and fibroblasts modeled by human mesenchymal stem cells (MSCs). The concentration ranges selected for each drug and investigational agent were based upon clinically achievable concentrations if the clinical Cmax of the agent was known.
Compounds. The drugs and investigational agents: inavolisib (NSC800729), alpelisib (NSC765974), duvelisib (NSC772469), copanlisib (NSC816437), ipatasertib (NSC767898), afuresertib (NSC778305), talazoparib (NSC767125), sapanisertib (NSC764658), selumetinib (NSC741078), tovorafenib (DAY101, NSC766906), vemurafenib (NSC761431), ravoxertinib (NSC781343), sotorasib (NSC818433), MRTX1133 (NSC 836407), abemaciclib (NSC 768073), palbociclib (NSC758247), venetoclax (NSC 766270), SY5609 (NSC837396), enzalutamide (NSC755605), and darolutamide (NSC825331), were obtained from the National Cancer Institute (NCI) Developmental Therapeutics Program Chemical Repository. The FDA-approved anticancer drug set is available from the NCI Developmental Therapeutics Program. […] The stock solutions were prepared in dimethyl sulfoxide (DMSO, Sigma-Aldrich, St. Louis, MO, cat. D2650) at 800-fold the tested concentration and stored at -70 degrees C prior to their use. All drugs and investigational agents were tested over a range starting from a high concentration at or near the clinical Cmax and decreasing in half-log increments. If the clinical Cmax for an agent had not been determined, the highest concentration tested was 10 microM.
Cell Culture. All cells were maintained in an incubator at 37 degrees C and 5% CO2 with 95% humidity. The PDC lines were cultured according to standard operating procedures established by the NCI PDMR (https://pdmr.cancer.gov/sops/default.htm). All PDCs were thawed and cultured in Matrigel-coated flasks prepared with a working solution of 1X Ham's F-12 nutrient mix, without supplementation (Invitrogen, Waltham, MA, cat. 11765054), 100 U/mL penicillin-streptomycin (Invitrogen, cat. 15140122), and 2.5% Matrigel (Corning Inc., Corning, NY, cat. 354248) for the first three passages. The 354836-022-R-J1-PDC, 475296-252-R-J1-PDC, and 997726-040-R-J2-PDC lines were cultured in 6A media, which includes advanced DMEM/F-12 (Thermo Fisher Scientific, cat. 12634028), 10 mM HEPES (Thermo Fisher Scientific, cat. 15630080), 1X GlutaMAX supplement (Thermo Fisher Scientific, cat. 35050061), 0.1 mg/mL primocin (InvivoGen, San Diego, CA, cat. ant-pm-2), 10% defined fetal bovine serum, heat inactivated (HyClone Laboratories Inc., Logan, UT, cat. SH30070.03HI), 50% L-WRN conditioned media (ATCC, cat. CRL-3276), 1.25 mM N-Acetyl-L-cysteine (Sigma-Aldrich, cat. A9165), 10 mM nicotinamide (Sigma-Aldrich, cat. N0636), 1X B-27 supplement (Thermo Fisher Scientific, cat. 17504044), 1X N-2 supplement (Thermo Fisher Scientific, cat. 17502048), and 10 microM Y-27632 dihydrochloride (Tocris Bioscience, Bristol, United Kingdom, cat. 1254). The 624824-186-R-J2-PDC line was cultured in 6C/Colon 1B media, which includes all 6A media components plus 50 ng/mL human EGF recombinant protein (Thermo Fisher Scientific, cat. PHG0311). […]

[1] = second compound 0.00316 µM, first compound 0.0316 µM
[2] = second compound 0.00316 µM, first compound 0.1 µM
[3] = second compound 0.00316 µM, first compound 0.316 µM
[4] = second compound 0.00316 µM, first compound 1 µM
[5] = second compound 0.01 µM, first compound 0.0316 µM
[6] = second compound 0.01 µM, first compound 0.1 µM
[7] = second compound 0.01 µM, first compound 0.316 µM
[8] = second compound 0.01 µM, first compound 1 µM
[9] = second compound 0.0316 µM, first compound 0.0316 µM
[10] = second compound 0.0316 µM, first compound 0.1 µM
[11] = second compound 0.0316 µM, first compound 0.316 µM
[12] = second compound 0.0316 µM, first compound 1 µM
[13] = second compound 0.1 µM, first compound 0.0316 µM
[14] = second compound 0.1 µM, first compound 0.1 µM
[15] = second compound 0.1 µM, first compound 0.316 µM
[16] = second compound 0.1 µM, first compound 1 µM
[17] = second compound 0.316 µM, first compound 0.0316 µM
[18] = second compound 0.316 µM, first compound 0.1 µM
[19] = second compound 0.316 µM, first compound 0.316 µM
[20] = second compound 0.316 µM, first compound 1 µM
[21] = second compound 1 µM, first compound 0.0316 µM
[22] = second compound 1 µM, first compound 0.1 µM
[23] = second compound 1 µM, first compound 0.316 µM
[24] = second compound 1 µM, first compound 1 µM
[25] = second compound 0.00316 µM, first compound 0.00316 µM
[26] = second compound 0.00316 µM, first compound 0.01 µM
[27] = second compound 0.01 µM, first compound 0.00316 µM
[28] = second compound 0.01 µM, first compound 0.01 µM
[29] = second compound 0.0316 µM, first compound 0.00316 µM
[30] = second compound 0.0316 µM, first compound 0.01 µM
[31] = second compound 0.1 µM, first compound 0.00316 µM
[32] = second compound 0.1 µM, first compound 0.01 µM
[33] = second compound 0.316 µM, first compound 0.00316 µM
[34] = second compound 0.316 µM, first compound 0.01 µM
[35] = second compound 1 µM, first compound 0.00316 µM
[36] = second compound 1 µM, first compound 0.01 µM
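Note: spheroids exposed to agents for 7 days before viability read.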
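Throughout, for viability, T/C: 100% = DMSO vehicle treated spheroids.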

pIC50 (second compound 0.00316 µM): < 5.00 | pIC50 (second compound 0.01 µM): < 5.00 | pIC50 (second compound 0.0316 µM): < 5.00 | pIC50 (second compound 0.1 µM): < 5.00 | pIC50 (second compound 0.316 µM): < 5.00 | pIC50 (second compound 1 µM): < 5.00
Compound: CC(C)NCC(C(=O)N1CCN(c2ncnc3c2C(C)CC3O)CC1)c1ccc(Cl)cc1 (stereo unspecified) + CC(Nc1ccc2c(c1)OCCn1cc(N3C(=O)OCC3C(F)F)nc1-2)C(N)=O
viability, T/C [1]: 113% | viability, T/C [2]: 113% | viability, T/C [3]: 113% | viability, T/C [4]: 94.6% | viability, T/C (second compound 0.00316 µM, first compound 3.16 µM): 94.9% | viability, T/C (second compound 0.00316 µM, first compound 10 µM): 92.1% | viability, T/C [5]: 88.3% | viability, T/C [6]: 79.1% | viability, T/C [7]: 72.1% | viability, T/C [8]: 87% | viability, T/C (second compound 0.01 µM, first compound 3.16 µM): 90.7% | viability, T/C (second compound 0.01 µM, first compound 10 µM): 79.7% | viability, T/C [9]: 98% | viability, T/C [10]: 95.4% | viability, T/C [11]: 82.7% | viability, T/C [12]: 92.8% | viability, T/C (second compound 0.0316 µM, first compound 3.16 µM): 95.4% | viability, T/C (second compound 0.0316 µM, first compound 10 µM): 89.4% | viability, T/C [13]: 85.7% | viability, T/C [14]: 84.6% | viability, T/C [15]: 68% | viability, T/C [16]: 84.1% | viability, T/C (second compound 0.1 µM, first compound 3.16 µM): 95.1% | viability, T/C (second compound 0.1 µM, first compound 10 µM): 70.8% | viability, T/C [17]: 89.8% | viability, T/C [18]: 68.3% | viability, T/C [19]: 86% | viability, T/C [20]: 86.3% | viability, T/C (second compound 0.316 µM, first compound 3.16 µM): 91.1% | viability, T/C (second compound 0.316 µM, first compound 10 µM): 91.5% | viability, T/C [21]: 95.4% | viability, T/C [22]: 87.5% | viability, T/C [23]: 94.1% | viability, T/C [24]: 83.6% | viability, T/C (second compound 1 µM, first compound 3.16 µM): 96.4% | viability, T/C (second compound 1 µM, first compound 10 µM): 74.2%

pIC50 (second compound 0.00316 µM): < 6.00 | pIC50 (second compound 0.01 µM): < 6.00 | pIC50 (second compound 0.0316 µM): < 6.00 | pIC50 (second compound 0.1 µM): < 6.00 | pIC50 (second compound 0.316 µM): < 6.00 | pIC50 (second compound 1 µM): < 6.00
Compound: CCN1CCN(Cc2ccc(Nc3ncc(F)c(-c4cc(F)c5nc(C)n(C(C)C)c5c4)n3)nc2)CC1 + CC(Nc1ccc2c(c1)OCCn1cc(N3C(=O)OCC3C(F)F)nc1-2)C(N)=O
viability, T/C [25]: 92.9% | viability, T/C [26]: 87.8% | viability, T/C [1]: 80.5% | viability, T/C [2]: 105% | viability, T/C [3]: 91.5% | viability, T/C [4]: 118% | viability, T/C [27]: 97.7% | viability, T/C [28]: 98.2% | viability, T/C [5]: 114% | viability, T/C [6]: 89.2% | viability, T/C [7]: 92.1% | viability, T/C [8]: 106% | viability, T/C [29]: 77.1% | viability, T/C [30]: 86.4% | viability, T/C [9]: 83.5% | viability, T/C [10]: 76.3% | viability, T/C [11]: 97.8% | viability, T/C [12]: 105% | viability, T/C [31]: 93.4% | viability, T/C [32]: 77.6% | viability, T/C [13]: 86.4% | viability, T/C [14]: 77.3% | viability, T/C [15]: 89.4% | viability, T/C [16]: 119% | viability, T/C [33]: 102% | viability, T/C [34]: 89% | viability, T/C [17]: 87.2% | viability, T/C [18]: 92.4% | viability, T/C [19]: 90.1% | viability, T/C [20]: 105% | viability, T/C [35]: 85.6% | viability, T/C [36]: 83.7% | viability, T/C [21]: 90.9% | viability, T/C [22]: 85.8% | viability, T/C [23]: 87.2% | viability, T/C [24]: 96.3%

pIC50 (second compound 0.00316 µM): < 7.00 | pIC50 (second compound 0.01 µM): < 7.00 | pIC50 (second compound 0.0316 µM): < 7.00 | pIC50 (second compound 0.1 µM): < 7.00 | pIC50 (second compound 0.316 µM): < 7.00 | pIC50 (second compound 1 µM): < 7.00
Compound: Cn1ncnc1[C@H]1c2n[nH]c(=O)c3cc(F)cc(c23)N[C@@H]1c1ccc(F)cc1 + CC(Nc1ccc2c(c1)OCCn1cc(N3C(=O)OCC3C(F)F)nc1-2)C(N)=O
viability, T/C (second compound 0.00316 µM, first compound 0.000316 µM): 78.6% | viability, T/C (second compound 0.00316 µM, first compound 0.001 µM): 115% | viability, T/C [25]: 96.8% | viability, T/C [26]: 95.4% | viability, T/C [1]: 94.8% | viability, T/C [2]: 82.2% | viability, T/C (second compound 0.01 µM, first compound 0.000316 µM): 112% | viability, T/C (second compound 0.01 µM, first compound 0.001 µM): 82.4% | viability, T/C [27]: 92.9% | viability, T/C [28]: 90.4% | viability, T/C [5]: 93.1% | viability, T/C [6]: 91.5% | viability, T/C (second compound 0.0316 µM, first compound 0.000316 µM): 96.7% | viability, T/C (second compound 0.0316 µM, first compound 0.001 µM): 97.1% | viability, T/C [29]: 101% | viability, T/C [30]: 81.3% | viability, T/C [9]: 90.5% | viability, T/C [10]: 89.5% | viability, T/C (second compound 0.1 µM, first compound 0.000316 µM): 108% | viability, T/C (second compound 0.1 µM, first compound 0.001 µM): 89% | viability, T/C [31]: 81.2% | viability, T/C [32]: 89.8% | viability, T/C [13]: 74.4% | viability, T/C [14]: 84.9% | viability, T/C (second compound 0.316 µM, first compound 0.000316 µM): 90.7% | viability, T/C (second compound 0.316 µM, first compound 0.001 µM): 78% | viability, T/C [33]: 81.9% | viability, T/C [34]: 98.3% | viability, T/C [17]: 74.8% | viability, T/C [18]: 86.1% | viability, T/C (second compound 1 µM, first compound 0.000316 µM): 91.6% | viability, T/C (second compound 1 µM, first compound 0.001 µM): 85.3% | viability, T/C [35]: 90% | viability, T/C [36]: 86.2% | viability, T/C [21]: 110% | viability, T/C [22]: 77.9%
